Consider 14 compounds from patent US20260198495A1, “BINARY INSECTICIDE COMPOSITION AND USE THEREOF” (SHENYANG SINOCHEM AGROCHEMICALS R & D CO., LTD., priority 2022, published 2026).

Holding throughout (assay type): in vivo
Data set [1] concerns Bemisia tabaci (Gennadius) nymphs. Description: Joint toxicity of I-72 + bifenthrin, Example 40, Table 40. The note with it: in Gossypium hirsutum, 96 h. The procedure:
Test target: Bemisia tabaci (Gennadius) nymphs, a sensitive strain reared indoors.
(§1) Preparation of the pesticide solution: according to different test requirements, the test samples were accurately weighed respectively with an electronic analytical balance. The technical pesticides were dissolved in acetone, and then diluted with 0.1% Tween 80 water into a series of pesticide solutions with a certain concentration gradient according to the experimental design dosage.
Experimental method: first, cotton leaves with neat and consistent Bemisia tabaci (Gennadius) nymphs were selected and made into leaf disks, with about 20 insects on each leaf disk. Then, they were evenly sprayed with the pesticide solution in the order from low dosage to high dosage according to the experimental design, with 1.5 mL for each leaf and 3 replicates for each treatment. In addition, a blank control was set up.
The treated test materials were placed in an observation room, and the temperature, humidity and illumination of the observation room could be adjusted as needed. The number of dead and live insects was investigated 96 hours later. […] Then, the co-toxicity coefficient of each ratio was calculated using the Sun Y-P method to evaluate the mixing effect (the same as in Example 1).

The subject of data set [2] is 3rd-instar larvae of Ostrinia furnacalis Guenee. Description: Joint toxicity of I-72 + lambda-cyhalothrin, Example 42, Table 42. The note with it: in Zea mays, 72 h. The procedure: Test target: 3rd-instar larvae of Ostrinia furnacalis Guenee.
as §1
Experimental method: first, tender corn stems were selected and dipped in the prepared pesticide solution for 10 s in the order from low dosage to high dosage according to the experimental design. After natural air-drying in the shade, they were placed in a 9-cm-diameter Petri dish with filter paper, and uniform and healthy test insects were introduced, with 10 insects for each treatment and 3 replicates for each treatment. In addition, a blank control was set up.
(§2) The treated test materials were placed in an observation room, and the temperature, humidity and illumination of the observation room could be adjusted as needed. The number of dead and live insects was investigated 72 hours later. […] Then, the co-toxicity coefficient of each ratio was calculated using the Sun Y-P method to evaluate the mixing effect (the same as in Example 1).

Data set [3] deals with 2nd-instar larvae of Chilo suppressalis (Walker). Nature of the data set: Joint toxicity of I-72 + azadirachtin, Example 36, Table 36. The note with it: in Oryza sativa, 72 h. An excerpt:
Test target: 2nd-instar larvae of Chilo suppressalis (Walker). The insect source was collected from Nanchang, Jiangxi Province, and it is the 11th generation continuously cultured indoors, with a relatively high resistance level to amide pesticides such as chlorantraniliprole.
Experimental method: the spraying method was adopted. Rice stalks with the same length and thickness were selected, cut into the same length, and evenly sprayed with the pesticide solution in the order from low dosage to high dosage according to the experimental design, with 1.5 mL of the pesticide solution for each treatment. The stalks were placed in a 6-cm-diameter Petri dish with filter paper. After natural air-drying in the shade, uniform and healthy test insects were introduced, with 10 insects for each treatment and 4 replicates for each treatment. In addition, a blank control was set up. The number of dead and live insects was investigated 72 hours later. The corrected mortality rate was calculated using the Abbott's formula, and the DPS data processing software was used for statistical analysis to calculate the toxicities (LC50 values) of the single test pesticides and the mixtures under the test ratios.
(§3) The test conditions, the preparation of the pesticide solution and the evaluation method were the same as those in Example 1.

For data set [4], the system named is 2nd-instar larvae of Mythimna separata. Description: Joint toxicity of I-72 + beta-cyfluthrin, Example 41, Table 41. The conditions noted are these: A = compound I-72, B = beta-cyfluthrin; corn leaf dipping; 72 hours. The procedure: Test target: 2nd-instar larvae of Mythimna separata.
as §1
Experimental method: first, corn leaves were selected and dipped in the prepared pesticide solution for 10 s in the order from low dosage to high dosage according to the experimental design. After natural air-drying in the shade, they were placed in a 9-cm-diameter Petri dish with filter paper, and uniform and healthy test insects were introduced, with 10 insects for each treatment and 3 replicates for each treatment. In addition, a blank control was set up.
as §2

The subject of data set [5] is Nilaparvata lugens (Stal) nymphs. Description: Joint toxicity of I-72 + buprofezin, Example 52, Table 52. The note with it: 72 h. The procedure:
(§4) Test target: Nilaparvata lugens (Stal) nymphs, a sensitive strain reared indoors.
as §1
(§5) Experimental method: the activity of the mixture against the Nilaparvata lugens (Stal) nymphs was determined by adopting the potted-seedling spraying method. First, rice seedlings were planted in culture pots. Uniform spraying was performed with the pesticide solution in the order from low dosage to high dosage according to the experimental design, with 2 mL for each seedling. Then, Nilaparvata lugens nymphs of uniform size were transferred onto the rice seedlings, with 3 replicates for each treatment. In addition, a blank control was set up.
The treated test materials were placed in an observation room, and the temperature, humidity and illumination of the observation room could be adjusted as needed. The number of dead and live insects was investigated 72 hours later. […] Then, the co-toxicity coefficient of each ratio was calculated using the Sun Y-P method to evaluate the mixing effect, as in Example 1.

Data set [6] has as its system adult Phyllotreta vittuta Fabr. Description: Joint toxicity of I-72 + deltamethrin, Example 45, Table 45. The note with it: 72 h. The procedure:
Test target: adult Phyllotreta vittuta Fabr.
as §1
Experimental method: first, uniform and consistent potted cabbage seedlings were selected. Then, uniform spraying was performed with the pesticide solution in the order from low dosage to high dosage according to the experimental design. After air-drying in the shade, adult flea beetles were transferred onto the treated cabbage seedlings, and then glass covers were put on them, with about 30-40 adult flea beetles on each seedling and 3 replicates for each treatment. In addition, a blank control was set up.
as §2

The subject of data set [7] is Nilaparvata lugens (Stal) nymphs. Description: Joint toxicity of I-72 + etofenprox, Example 44, Table 44. The conditions noted are these: in Oryza sativa, 72 h. The procedure: as §4, §1, §5, §2
Data set [8] has as its system adult Tetranychus cinnabarinus (Boisduval). Nature of the data set: Joint toxicity of I-72 + fenpropathrin, Example 39, Table 39. The note with it: 72 h. The procedure: Test target: adult Tetranychus cinnabarinus (Boisduval), a sensitive strain reared indoors.
as §1
Experimental method: the activity of the mixture against the adult Tetranychus cinnabarinus (Boisduval) was determined by adopting the potted-seedling spraying method. First, the adult Tetranychus cinnabarinus of uniform size were transferred onto the leaves of kidney bean seedlings at the stage when the first pair of true leaves was fully expanded. After the adult mites had stabilized, the base number was counted. Then, the uniform spraying was performed with the pesticide solution in the order from low to high dose according to the experimental design, with 1.5 mL for each seedling and 3 replicates for each treatment. […]
The treated test materials were placed in an observation room, and the temperature, humidity and illumination of the observation room could be adjusted as needed. […] Then, the co-toxicity coefficient of each ratio was calculated using the Sun Y-P method to evaluate the mixing effect, as in Example 1.

Data set [9] concerns Myzus persicae (Sulzer) nymphs. Description: Joint toxicity of I-72 + fenvalerate, Example 46, Table 46. The conditions noted are these: in Brassica oleracea, 48 h. The procedure: Test target: Myzus persicae (Sulzer) nymphs, a sensitive strain reared indoors.
as §1
Experimental method: first, cabbage leaves with uniform and consistent Myzus persicae (Sulzer) were selected, with about 30-40 insects on each leaf. Then, they were evenly sprayed with the pesticide solution in the order from low dosage to high dosage according to the experimental design, with 1.5 mL of the solution for each leaf and 3 replicates for each treatment. In addition, a blank control was set up.
(§6) The treated test materials were placed in an observation room, and the temperature, humidity and illumination of the observation room could be adjusted as needed. The number of dead and live insects was investigated 48 hours later. […] Then, the co-toxicity coefficient of each ratio was calculated using the Sun Y-P method to evaluate the mixing effect (the same as in Example 1).

Data set [10] deals with 2nd-instar larvae of Spodoptera exigua Hübner. Description: Joint toxicity of I-72 + lufenuron, Example 54, Table 54. The note with it: in Brassica oleracea, foliar, 72 h. The procedure: Test target: 2nd-instar larvae of Spodoptera exigua Hübner.
as §1
Experimental method: first, cabbage leaves were selected and dipped in the prepared pesticide solution for 10 s in the order from low dosage to high dosage according to the experimental design. After natural air-drying in the shade, they were placed in a 9-cm-diameter Petri dish with filter paper, and uniform and healthy test insects were introduced, with 10 insects for each treatment and 3 replicates for each treatment. In addition, a blank control was set up.
as §2

Data set [11] concerns mixed aphids of Myzus persicae (Sulzer). Description: Joint toxicity of I-72 + matrine, Example 34, Table 34. The note with it: in Brassica oleracea, 48 h.
Description: Test subject: mixed aphids of Myzus persicae (Sulzer), a sensitive strain reared indoors.
Experimental method: the spraying method on leaves with aphids was adopted. Cabbage leaves with a certain number of Myzus persicae (Sulzer) were taken. The prepared pesticide solutions were evenly sprayed on both the front and back sides of the leaves in the order from low concentration to high concentration according to the experimental design. Then, the leaves were placed in a 6-cm-diameter Petri dish with filter paper. After natural air-drying in the shade, they were placed in the observation room. The experiment had 3 replicates set, and in addition, a blank control was set up. The number of dead and live insects was investigated 48 hours later. The corrected mortality rate was calculated using the Abbott's formula, and the DPS data processing software was used for statistical analysis to calculate the toxicities (LC50 values) of the single test pesticides and the mixtures under the test ratios.
as §3

The subject of data set [12] is 3rd-instar larvae of Chilo suppressalis (Walker). Description: Joint toxicity of I-72 + methoxyfenozide, Example 53, Table 53. The conditions noted are these: in Oryza sativa, 72 h. The procedure:
Test target: 3rd-instar larvae of Chilo suppressalis (Walker).
as §1
Experimental method: first, tender rice stems were selected and dipped in the prepared pesticide solution for 10 s in the order from low dosage to high dosage according to the experimental design. After natural air-drying in the shade, they were placed in a 9-cm-diameter Petri dish with filter paper, and uniform and healthy test insects were introduced, with 10 insects for each treatment and 3 replicates for each treatment. In addition, a blank control was set up.
as §2

The subject of data set [13] is adult Phyllotreta striolata (Walker). Nature of the data set: Joint toxicity of I-72 + rotenone, insect dipping, Example 35, Table 35.
Description: Test target: adult Phyllotreta striolata (Walker), a strain reared indoors.
Experimental method: the dipping method was adopted. Adult flea beetles of uniform size were put into an insect-dipping cage and dipped for 10 s in the order from low dosage to high dosage according to the experimental design, with 30 beetles for each treatment. The beetles were placed in a 9-cm-diameter Petri dish with filter paper, with 3 replicates for each treatment. In addition, a blank control was set up. The treated test materials were placed in an observation room, and the temperature, humidity and illumination of the observation room could be adjusted as needed.
as §3

The subject of data set [14] is Lipaphis erysimi (Kaltenbach). Description: Joint toxicity of I-72 + pyrethrin, Example 47, Table 47. The conditions noted are these: A = compound I-72, B = pyrethrin; cabbage leaf spraying; 48 hours. The procedure:
Test target: Lipaphis erysimi (Kaltenbach).
as §1
Experimental method: first, cabbage leaves with uniform and consistent Lipaphis erysimi (Kaltenbach) were selected, with about 30-40 insects on each leaf. Then, they were evenly sprayed with the pesticide solution in the order from low dosage to high dosage according to the experimental design, with 1.5 mL of the solution for each leaf and 3 replicates for each treatment. In addition, a blank control was set up.
as §6

What is called LC50 is the concentration that kills 50% of the test population. For the compound `Cc1c(COC(=O)[C@@H]2[C@H](/C=C(\Cl)C(F)(F)F)C2(C)C)cccc1-c1ccccc1` (racemic) [bifenthrin], the LC50 in data set [1] came out at 62.4 µg/mL. Turning to `CC1(C)[C@H](C(=O)O[C@H](C#N)c2cccc(Oc3ccccc3)c2)[C@@H]1/C=C(\Cl)C(F)(F)F` (racemic) [lambda-cyhalothrin], the 50% lethal concentration (LC50) in data set [2] was determined as 1.83 µg/mL. For `C/C=C(\C)C(=O)O[C@H]1C[C@@H](OC(C)=O)[C@@]2(C(=O)OC)CO[C@H]3[C@@H](O)[C@@](C)([C@]45O[C@@]4(C)[C@H]4C[C@@H]5O[C@@H]5OC=C[C@@]54O)[C@H]4[C@]1(CO[C@]4(O)C(=O)OC)[C@@H]32` [azadirachtin], in [3], the LC50 amounted to 22.5 µg/mL. As for `CC1(C)C(C=C(Cl)Cl)C1C(=O)OC(C#N)c1ccc(F)c(Oc2ccccc2)c1` (stereo not drawn) [beta-cyfluthrin], the LC50 in data set [4] came to 1.0438 µg/mL. In the case of `CC(C)N1C(=O)N(c2ccccc2)CS/C1=N\C(C)(C)C` [buprofezin], in data set [5], the 50% lethal concentration (LC50) stood at 1.98 µg/mL.

On to `CC1(C)[C@H](C(=O)O[C@H](C#N)c2cccc(Oc3ccccc3)c2)[C@@H]1C=C(Br)Br` [deltamethrin], for which the LC50 in data set [6] turned out to be 6.76 µg/mL. For the compound `CCOc1ccc(C(C)(C)COCc2cccc(Oc3ccccc3)c2)cc1` [etofenprox], the LC50 in data set [7] amounted to 25.4 µg/mL. Turning to `CC1(C)C(C(=O)OC(C#N)c2cccc(Oc3ccccc3)c2)C1(C)C` (centres unmarked) [fenpropathrin], the LC50 in data set [8] is 5.52 µg/mL. As to `CC(C)C(C(=O)OC(C#N)c1cccc(Oc2ccccc2)c1)c1ccc(Cl)cc1` (centres unmarked) [fenvalerate], the LC50 in data set [9] amounted to 34.4 µg/mL.

Regarding `O=C(NC(=O)c1c(F)cccc1F)Nc1cc(Cl)c(OC(F)(F)C(F)C(F)(F)F)cc1Cl` (centres unmarked) [lufenuron], in [10], the LC50 worked out at 12.9 µg/mL. Regarding `O=C1CCC[C@@H]2[C@H]3CCCN4CCC[C@@H](CN12)[C@@H]34` [matrine], the LC50 in data set [11] amounted to 3.24 µg/mL. On to `COc1cccc(C(=O)NN(C(=O)c2cc(C)cc(C)c2)C(C)(C)C)c1C` [methoxyfenozide], for which the LC50 in [12] amounted to 8.95 µg/mL.

`C=C(C)[C@H]1Cc2c(ccc3c2O[C@@H]2COc4cc(OC)c(OC)cc4[C@@H]2C3=O)O1` [rotenone]: the LC50 in [13] is 19.5 µg/mL. On to pyrethrin, for which the LC50 in data set [14] is 55.3268 µg/mL.
